These results are taken from patent US5298508A, “Irreversible inhibitors of adenosine receptors” (priority 1992, dated 1994).

The target of assay [1] is T1, A1 adenosine receptors (Rattus norvegicus, UniProt P25099).
T1 construct: A1 adenosine receptors in rat cerebral cortex membranes; from tissue; host or cells: rat cerebral cortex membranes
T1 sequence (P25099 1-326): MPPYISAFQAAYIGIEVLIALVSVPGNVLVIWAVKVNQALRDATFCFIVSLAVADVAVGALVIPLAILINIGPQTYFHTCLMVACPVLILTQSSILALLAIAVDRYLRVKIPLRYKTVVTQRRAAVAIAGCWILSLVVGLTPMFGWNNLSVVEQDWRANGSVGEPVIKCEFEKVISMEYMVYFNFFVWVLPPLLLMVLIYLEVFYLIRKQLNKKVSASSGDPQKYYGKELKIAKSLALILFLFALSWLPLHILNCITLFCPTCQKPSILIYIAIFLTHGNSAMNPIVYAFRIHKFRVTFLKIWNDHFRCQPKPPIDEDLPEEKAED
The assay is described as follows: inhibition of binding of [3H]N6-phenylisopropyladenosine ([3H]PIA) to A1 adenosine receptors in rat cerebral cortex membranes. How it is done: Ukena et al., FEBS Letters 209;122, 1986.
For the biochemical assays, stock solutions of xanthines in the millimolar concentration range in dimethylsulfoxide were prepared and stored frozen. The solutions were warmed to 50° C. prior to dilution in aqueous medium. […] Acad. Sci. USA, 83:4089, 1986. Inhibition of binding by a range of concentrations of a xanthine or adenosine derivative was assessed in triplicate in at least three separate experiments.

Assay [2] has as its target T2, central A1 receptors (Rattus norvegicus, UniProt P25099).
T2 construct: A1 -adenosine receptors in rat brain membranes; from tissue; host or cells: rat brain membranes
T2 sequence (P25099 1-326): T1 sequence (P25099 1-326)
It counts as binding.

Assay [3] addresses T3, central A1 receptors (Bos taurus, UniProt P28190).
T3 construct: A1 -adenosine receptors in membranes form calf brain; from tissue; host or cells: calf brain membranes
T3 sequence (P28190 1-326): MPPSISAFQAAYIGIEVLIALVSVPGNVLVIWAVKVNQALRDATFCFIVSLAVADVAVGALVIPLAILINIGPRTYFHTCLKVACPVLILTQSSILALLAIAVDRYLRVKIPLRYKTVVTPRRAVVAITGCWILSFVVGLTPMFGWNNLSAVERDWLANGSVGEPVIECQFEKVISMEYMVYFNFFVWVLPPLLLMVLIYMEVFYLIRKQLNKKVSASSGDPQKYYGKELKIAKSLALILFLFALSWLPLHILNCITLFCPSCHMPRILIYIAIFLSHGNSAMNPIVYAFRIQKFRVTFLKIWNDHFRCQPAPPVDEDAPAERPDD
Put plainly: inhibition of radioligand binding at central A1 receptors, calf brain membranes. An excerpt:
^b against [^125 I]APNEA (i.e. N^6
^b against [^125 I]APNEA;
The compounds, at concentrations relative to the Ki -values obtained, were screened for the ability to inhibit competitive binding of the radioligands [^3 H]PIA to rat brain membranes and [^3 H]XAC to bovine brain membranes, a shown in Table 1.

The mark [4] stands for this setting: read-out: Ki at central A1 receptors, rat.
Setting [5] is: Table I, rat, against [3H]PIA, read-out: Ki at central A1 receptors, rat.

SMILES strings stand for the structures. Read-outs that look alike come from different tables or passages of the source.

In the case of `O=C(Cc1ccc(NC(=O)Cc2ccc(Nc3ncnc4c3ncn4[C@@H]3O[C@H](CO)[C@@H](O)[C@H]3O)cc2)cc1)NCCNC(=S)Nc1ccccc1F` [Compound 31b], the Ki – broadly, a dissociation constant, usually derived from enzyme kinetics or from competition with a known ligand – in assay [1] (setting [4]) worked out at 10.7 nM.

For `CCCn1c(=O)c2[nH]c(-c3ccc(OCC(=O)NCCNC(=S)Nc4cccc(N=C=S)c4)cc3)nc2n(CCC)c1=O` [Compound 5b], the inhibition at 0.005 µM in assay [2] (read-out: % inhib (conc)) came out at 49%. For the same molecule, the “potency of irreversible inhibition, meta versus para phenylisothiocyanate” value in assay [2] (xanthine series, result in words) was “meta-position favored (5b) over the para-position (4b)”. Moreover, the “relative potency in the binding assay, 5b versus 4b” value in assay [1] (meta versus para isomer) is “more than twice as potent in the binding assay than 4b”. In assay [3], this molecule came in with a Ki of 0.5 nM.

As for `O=C(Cc1ccc(NC(=O)Cc2ccc(Nc3ncnc4c3ncn4[C@@H]3O[C@H](CO)[C@@H](O)[C@H]3O)cc2)cc1)NCCNC(=S)Nc1ccc(F)cc1` [Compound 31a], the Ki in assay [1] (setting [4]) was 5 nM.

Turning to `CCCn1c(=O)c2[nH]c(-c3ccc(OCC(=O)NCCNC(=S)Nc4ccc(C)cc4)cc3)nc2n(CCC)c1=O` [Compound 6], the Ki in assay [1] (setting [5]) is 16 ± 2.9 nM.

Regarding `COc1ccc(NC(=S)NCCNC(=O)Cc2ccc(NC(=O)Cc3ccc(Nc4ncnc5c4ncn5[C@@H]4O[C@H](CO)[C@@H](O)[C@H]4O)cc3)cc2)cc1` [Compound 30], the Ki in assay [1] (setting [4]) was 5 nM.

As to `CCCn1c(=O)c2nc(-c3ccc(OCC(=O)NCCN=C(S)Nc4ccc([N+](=O)[O-])cc4)cc3)[nH]c2n(CCC)c1=O` [Compound 11], the inhibition constant Ki in assay [1] (setting [4]) was 5 nM.

With `O=C(Cc1ccc(NC(=O)Cc2ccc(Nc3ncnc4c3ncn4[C@@H]3O[C@H](CO)[C@@H](O)[C@H]3O)cc2)cc1)NCCN=C=S` [Compound 26b], the Ki in assay [1] was 4 nM; in assay [3], 2.5 nM.

Take `CCCn1c(=O)c2[nH]c(-c3ccc(OCC(=O)NCCNS(=O)(=O)c4cccc(S(=O)(=O)Cl)c4)cc3)nc2n(CCC)c1=O` [Compound 13]: the inhibition at 0.1 µM in assay [2] (read-out: % inhib (conc)) worked out at 20%. In addition, in assay [1] (setting [5]), the Ki came out at 2.5 ± 0.47 nM.

As for `NCCNC(=O)Cc1ccc(NC(=O)Cc2ccc(Nc3ncnc4c3ncn4[C@@H]3O[C@H](CO)[C@@H](O)[C@H]3O)cc2)cc1` [Compound 26a, reference compound], affinity in assay [3] was put at a Ki of 0.2 nM.

Turning to `O=C(CBr)NCCNC(=O)Cc1ccc(NC(=O)Cc2ccc(Nc3ncnc4c3ncn4[C@@H]3O[C@H](CO)[C@@H](O)[C@H]3O)cc2)cc1` [Compound 36], in assay [1] (setting [4]), the Ki was determined as 5 nM.

Take `CCCn1c(=O)c2nc(-c3ccc(OCC(=O)NCCN=C(S)Nc4ccc(S(=O)(=O)O)cc4)cc3)[nH]c2n(CCC)c1=O` [Compound 12]: in assay [1] (setting [4]), the inhibition constant Ki worked out at 430 nM.

For the molecule `CCCn1c(=O)c2[nH]c(-c3ccc(OCC(=O)ON4C(=O)CCC4=O)cc3)nc2n(CCC)c1=O` [Compound 1], the inhibition at 0.5 µM in assay [2] (read-out: % inhib (conc)) is 0%. For the same molecule, the “irreversible inhibition of central A1-adenosine receptors” value in assay [2] (result in words) is “only the longest of the series, SUS-XAC, 21, inhibits binding irreversibly”. Also, in assay [1] (setting [5]), the Ki was determined as 9 ± 0.7 nM.

Consider `CCCn1c(=O)c2[nH]c(-c3ccc(OCC(=O)NCCNC(=O)c4ccc(CBr)cc4)cc3)nc2n(CCC)c1=O` [Compound 19], for which the Ki stood at 11.5 ± 1.5 nM in assay [1] (setting [5]) and 6.9 nM in assay [3] (read-out: Ki at central A1 receptors, calf).

On to `CCCn1c(=O)c2nc(-c3ccc(OCC(=O)NCCN=C(S)Nc4ccc(F)cc4)cc3)[nH]c2n(CCC)c1=O` [Compound 8], for which the Ki in assay [1] (setting [4]) is 12.8 nM.

Consider `CCCn1c(=O)c2[nH]c(-c3ccc(OCC(=O)NCCNS(=O)(=O)c4ccc(C)cc4)cc3)nc2n(CCC)c1=O` [Compound 14], for which, in assay [1] (setting [5]), the Ki was 72 ± 7.2 nM.

As to `O=C(Cc1ccc(NC(=O)Cc2ccc(Nc3ncnc4c3ncn4[C@@H]3O[C@H](CO)[C@@H](O)[C@H]3O)cc2)cc1)NCCNC(=S)Nc1ccc([N+](=O)[O-])cc1` [Compound 34], the Ki in assay [1] (setting [4]) is 1 nM.

For the molecule `CCCn1c(=O)c2[nH]c(-c3ccc(OCC(=O)NCCNC(=O)Cc4ccc(NC(=S)Nc5ccc(N=C=S)cc5)cc4)cc3)nc2n(CCC)c1=O` [Compound 15e], the inhibition at 0.1 µM in assay [2] (read-out: % inhib (conc)) was 10%. The affinity in assay [1] corresponds to a Ki of 30 nM.

Turning to `O=C(Cc1ccc(Nc2ncnc3c2ncn3[C@@H]2O[C@H](CO)[C@@H](O)[C@H]2O)cc1)Nc1ccc(CC(=O)ON2C(=O)CCC2=O)cc1` [Compound 25], the Ki in assay [1] (setting [4]) is 9.6 ± 1.44 nM.

Turning to `O=C(Cc1ccc(NC(=O)Cc2ccc(Nc3ncnc4c3ncn4[C@@H]3O[C@H](CO)[C@@H](O)[C@H]3O)cc2)cc1)NCCNC(=S)Nc1ccc(N=C=S)cc1` [Compound 27], the inhibition at 0.05 µM in assay [2] (read-out: % inhib (conc)) is greater than 80%. For the same molecule, the “irreversible inhibition of central A1-adenosine receptors” value in assay [2] (result in words) was “behave pharmacologically as irreversible inhibitors of central A1 -adenosine receptors”. In addition, the inhibition constant Ki turned out to be 0.47 ± 0.13 nM in assay [1] and 0.1 nM in assay [3].

Turning to `CCCn1c(=O)c2nc(-c3ccc(OCC(=O)NCCNC(=O)CCCN4C(=O)C=CC4=O)cc3)[nH]c2n(CCC)c1=O` [Compound 23], the inhibition constant Ki in assay [1] (setting [4]) turned out to be 63 nM.

For `CCCn1c(=O)c2[nH]c(-c3ccc(OCC(=O)NCCNC(=O)CCSSc4ccccn4)cc3)nc2n(CCC)c1=O` [Compound 22], the inhibitory constant (Ki) in assay [1] (setting [5]) came to 23.8 ± 3.51 nM.

On to `O=C(Cc1ccc(NC(=O)Cc2ccc(Nc3ncnc4c3ncn4[C@@H]3O[C@H](CO)[C@@H](O)[C@H]3O)cc2)cc1)NCCNC(=S)Nc1c(F)c(F)c(F)c(F)c1F` [Compound 32], for which the Ki in assay [1] (setting [4]) stood at 1.64 ± 0.47 nM.

Take `CCCn1c(=O)c2[nH]c(-c3ccc(OCC(=O)NCCNC(=O)Cc4ccc(NC(=O)OC(C)(C)C)cc4)cc3)nc2n(CCC)c1=O` [Compound 15c]: in assay [1] (setting [5]), the inhibition constant Ki stood at 53 ± 12 nM.

Consider `CCCn1c(=O)c2[nH]c(-c3ccc(OCC(=O)NCCN)cc3)nc2n(CCC)c1=O` [Compound 3, reference compound], for which the Ki in assay [1] (setting [5]) turned out to be 1.1 ± 0.05 nM; in assay [3] (Table I, calf, against [125I]APNEA, read-out: Ki at central A1 receptors, calf), 0.2 nM.

With `CCCn1c(=O)c2[nH]c(-c3ccc(OCC(=O)NCCNC(=O)CCC(=O)ON4C(=O)CCC4=O)cc3)nc2n(CCC)c1=O` [Compound 20b], in assay [2] (read-out: % inhib (conc)), the inhibition at 0.5 µM came out at 0%. In addition, in assay [2] (result in words), the “irreversible inhibition of central A1-adenosine receptors” value is listed as “only the longest of the series, SUS-XAC, 21, inhibits binding irreversibly”. Besides, the Ki in assay [1] (setting [5]) is 20 ± 4.5 nM.

Regarding `CCCn1c(=O)c2nc(-c3ccc(OCC(=O)NCCN=C(S)Nc4ccc(OC)cc4)cc3)[nH]c2n(CCC)c1=O` [Compound 7], in assay [1] (setting [5]), the Ki was determined as 20 nM.

For `O=C(Cc1ccc(Nc2ncnc3c2ncn3[C@@H]2O[C@H](CO)[C@@H](O)[C@H]2O)cc1)ON1C(=O)CCC1=O` [Compound 24], in assay [1] (Table II, rat, against [3H]PIA, read-out: Ki at central A1 receptors, rat), the Ki was 8.37 ± 0.73 nM.

For the molecule `CCCn1c(=O)c2[nH]c(-c3ccc(OCC(=O)NCCNC(=O)CBr)cc3)nc2n(CCC)c1=O` [Compound 18, 8-[2-[4-bromoacetylaminoethyl[amino[carbonyl[methyloxyphenyl]]]]]-1,3-dipropylxanthine], the inhibitory constant (Ki) in assay [1] (setting [5]) is 17.6 ± 1.5 nM.

For the molecule `CCCn1c(=O)c2[nH]c(-c3ccc(OCC(=O)NCCNC(=S)Nc4c(F)c(F)c(F)c(F)c4F)cc3)nc2n(CCC)c1=O` [Compound 9], the Ki in assay [1] (setting [5]) is 9.07 ± 0.9 nM.

With `CCCn1c(=O)c2[nH]c(-c3ccc(OCC(=O)NCCNC(=O)Cc4ccc(N)cc4)cc3)nc2n(CCC)c1=O` [Compound 15d], in assay [1] (setting [5]), the inhibitory constant (Ki) turned out to be 40 nM.

For the molecule `CCCn1c(=O)c2[nH]c(-c3ccc(OCC(=O)NCCNC(=S)Nc4ccc(Br)cc4)cc3)nc2n(CCC)c1=O` [Compound 10], in assay [1] (setting [5]), the Ki was determined as 7.26 ± 0.9 nM.

Regarding `O=C(Cc1ccc(NC(=O)Cc2ccc(Nc3ncnc4c3ncn4[C@@H]3O[C@H](CO)[C@@H](O)[C@H]3O)cc2)cc1)NCCNC(=S)Nc1ccc(S(=O)(=O)O)cc1` [Compound 35], the Ki in assay [1] (setting [4]) came out at 100 nM.

With `CCCn1c(=O)c2[nH]c(-c3ccc(OCC(=O)NCCNC(=O)CNC(=S)Nc4ccc(N=C=S)cc4)cc3)nc2n(CCC)c1=O` [Compound 16c], the inhibition at 0.5 µM in assay [2] (read-out: % inhib (conc)) is 50%. Further, the “irreversible inhibition of central A1-adenosine receptors” value in assay [2] (result in words) was “behave pharmacologically as irreversible inhibitors of central A1 -adenosine receptors”. Further, the Ki in assay [1] (setting [5]) came to 6.85 ± 1.14 nM.

Turning to `Cc1ccc(NC(=S)NCCNC(=O)Cc2ccc(NC(=O)Cc3ccc(Nc4ncnc5c4ncn5[C@@H]4O[C@H](CO)[C@@H](O)[C@H]4O)cc3)cc2)cc1` [Compound 29], the inhibition constant (Ki) in assay [1] (setting [4]) came to 3.72 ± 0.44 nM.

As to `O=C(Cc1ccc(NC(=O)Cc2ccc(Nc3ncnc4c3ncn4[C@@H]3O[C@H](CO)[C@@H](O)[C@H]3O)cc2)cc1)NCCNC(=S)Nc1ccc(Br)cc1` [Compound 33], in assay [1] (setting [4]), the Ki came to 1.19 ± 0.14 nM.
